Results: US20250161319A1, “USE OF HPK1 INHIBITOR IN TREATMENT OF INTERFERON-RELATED DISEASES” (priority 2022, published 2025)

Assays:
HPK1 = HPK1 (Homo sapiens (Human), UniProt Q92918); assay: Inhibition of HPK1 kinase activity in vitro (ADP-Glo), compounds of Formula I-2; assay type: biochemical
Procedure: The starting concentration for all tested compounds was 10 μM, and diluted in three-fold concentration gradient for a total of 10 concentration points in duplicate. Before the experiment, 50 μM DTT and the enzymatic reaction system buffer were prepared. […] A mixture of 2-fold concentration of MBP and ATP was prepare in the kinase buffer, and 2.5 μL of prepared mixture of 2-fold concentration of MBP and ATP was added into the above reaction system for the reaction, centrifuged at 1000 g for 30 s, and then incubated at room temperature for 1 h. 5 μL of ADP-Glo reagent was added into the reaction system, and incubated at room temperature for 40 min. 10 μL of kinase detection reagent was added and incubated at room temperature for 40 min. […] In the above formula, empd refers to the tested compound, PC refers to the positive control, and VC refers to the negative control.

GCK = GCK (Homo sapiens (Human), UniProt Q12851); assay: Inhibition of GCK kinase activity in vitro (ADP-Glo); assay type: biochemical
Sequence of GCK (Q12851 whole entry): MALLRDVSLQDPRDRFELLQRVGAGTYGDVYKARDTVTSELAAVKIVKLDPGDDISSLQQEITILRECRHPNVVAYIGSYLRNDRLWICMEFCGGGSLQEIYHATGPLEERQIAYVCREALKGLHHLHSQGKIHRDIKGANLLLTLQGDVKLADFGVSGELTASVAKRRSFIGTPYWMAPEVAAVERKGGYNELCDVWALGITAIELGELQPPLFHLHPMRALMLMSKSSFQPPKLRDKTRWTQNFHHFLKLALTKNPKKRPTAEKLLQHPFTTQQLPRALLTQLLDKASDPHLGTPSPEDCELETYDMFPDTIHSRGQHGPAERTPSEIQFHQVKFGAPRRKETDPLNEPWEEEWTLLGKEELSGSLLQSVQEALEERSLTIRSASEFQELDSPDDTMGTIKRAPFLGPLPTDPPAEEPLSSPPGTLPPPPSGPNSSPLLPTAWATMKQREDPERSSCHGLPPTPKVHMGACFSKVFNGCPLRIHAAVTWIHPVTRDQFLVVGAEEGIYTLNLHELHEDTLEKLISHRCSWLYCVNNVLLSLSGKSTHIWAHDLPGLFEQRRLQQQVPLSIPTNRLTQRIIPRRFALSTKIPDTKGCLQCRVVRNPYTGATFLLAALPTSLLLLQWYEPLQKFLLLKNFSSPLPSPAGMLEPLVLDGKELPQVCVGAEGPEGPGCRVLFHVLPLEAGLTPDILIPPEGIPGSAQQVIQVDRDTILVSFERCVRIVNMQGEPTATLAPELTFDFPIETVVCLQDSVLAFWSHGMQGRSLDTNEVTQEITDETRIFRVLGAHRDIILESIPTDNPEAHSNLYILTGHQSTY
Procedure: (§1) The starting concentration for all tested compounds was 10 μM, and diluted in three-fold concentration gradient for a total of 10 concentration points in duplicate. […] A mixture of 2-fold concentration of MBP and ATP was prepare in the kinase buffer, and 2.5 μL of prepared mixture of 2-fold concentration of MBP and ATP was added into the above reaction system for the reaction, centrifuged at 1000 g for 30 s, and then incubated at room temperature for 1 h. 5 μL of ADP-Glo reagent was added into the reaction system, and incubated at room temperature for 40 min. 10 μL of kinase detection reagent was added and incubated at room temperature for 40 min.

TNIK = TNIK (Homo sapiens (Human), UniProt Q9UKE5); assay: Inhibition of TNIK kinase activity in vitro (ADP-Glo); assay type: biochemical
Procedure: as §1

PDK1 = PDK1 (Homo sapiens (Human), UniProt O15530); assay: Inhibition of PDK1 kinase activity in vitro (ADP-Glo); assay type: biochemical
Procedure: as §1

JAK1 = JAK1 (Homo sapiens (Human), UniProt P23458); assay: Kinase panel inhibition rate at 10 μM; assay type: biochemical
CSF1R = CSF1R (Homo sapiens (Human), UniProt P07333); assay: Kinase panel inhibition rate at 10 μM; assay type: biochemical
SYK = SYK (Homo sapiens (Human), UniProt P43405); assay: Kinase panel inhibition rate at 10 μM; assay type: biochemical
LCK = LCK (Homo sapiens (Human), UniProt P06239); assay: Kinase panel inhibition rate at 10 μM; assay type: biochemical
LYNB = LYNB (Homo sapiens (Human), UniProt P07948); assay: Kinase panel inhibition rate at 10 μM; assay type: biochemical
PI3Kα = PI3Kα (Homo sapiens (Human), UniProt P42336); assay: Kinase panel inhibition rate at 10 μM; assay type: biochemical
AKT1 = AKT1 (Homo sapiens (Human), UniProt P31749); assay: Kinase panel inhibition rate at 10 μM; assay type: biochemical
HER2 = HER2 (Homo sapiens (Human), UniProt P04626); assay: Kinase panel inhibition rate at 10 μM; assay type: biochemical
EGFR = EGFR (Homo sapiens (Human), UniProt P00533); assay: Kinase panel inhibition rate at 10 μM; assay type: biochemical
ERK1.2 = assay: Kinase panel inhibition rate at 10 μM; assay type: biochemical
ZAP70 = ZAP70 (Homo sapiens (Human), UniProt P43403); assay: Kinase panel inhibition rate at 10 μM; assay type: biochemical
IGFIR = IGFIR (Homo sapiens (Human), UniProt P08069); assay: Kinase panel inhibition rate at 10 μM; assay type: biochemical
ATR = ATR (Homo sapiens (Human), UniProt Q13535); assay: Kinase panel inhibition rate at 10 μM; assay type: biochemical
MNK1/2 = assay: Kinase panel inhibition rate at 10 μM; assay type: biochemical
ROS1 = ROS1 (Homo sapiens (Human), UniProt P08922); assay: Kinase panel inhibition rate at 10 μM; assay type: biochemical
Sequence of ROS1 (P08922 28-2347): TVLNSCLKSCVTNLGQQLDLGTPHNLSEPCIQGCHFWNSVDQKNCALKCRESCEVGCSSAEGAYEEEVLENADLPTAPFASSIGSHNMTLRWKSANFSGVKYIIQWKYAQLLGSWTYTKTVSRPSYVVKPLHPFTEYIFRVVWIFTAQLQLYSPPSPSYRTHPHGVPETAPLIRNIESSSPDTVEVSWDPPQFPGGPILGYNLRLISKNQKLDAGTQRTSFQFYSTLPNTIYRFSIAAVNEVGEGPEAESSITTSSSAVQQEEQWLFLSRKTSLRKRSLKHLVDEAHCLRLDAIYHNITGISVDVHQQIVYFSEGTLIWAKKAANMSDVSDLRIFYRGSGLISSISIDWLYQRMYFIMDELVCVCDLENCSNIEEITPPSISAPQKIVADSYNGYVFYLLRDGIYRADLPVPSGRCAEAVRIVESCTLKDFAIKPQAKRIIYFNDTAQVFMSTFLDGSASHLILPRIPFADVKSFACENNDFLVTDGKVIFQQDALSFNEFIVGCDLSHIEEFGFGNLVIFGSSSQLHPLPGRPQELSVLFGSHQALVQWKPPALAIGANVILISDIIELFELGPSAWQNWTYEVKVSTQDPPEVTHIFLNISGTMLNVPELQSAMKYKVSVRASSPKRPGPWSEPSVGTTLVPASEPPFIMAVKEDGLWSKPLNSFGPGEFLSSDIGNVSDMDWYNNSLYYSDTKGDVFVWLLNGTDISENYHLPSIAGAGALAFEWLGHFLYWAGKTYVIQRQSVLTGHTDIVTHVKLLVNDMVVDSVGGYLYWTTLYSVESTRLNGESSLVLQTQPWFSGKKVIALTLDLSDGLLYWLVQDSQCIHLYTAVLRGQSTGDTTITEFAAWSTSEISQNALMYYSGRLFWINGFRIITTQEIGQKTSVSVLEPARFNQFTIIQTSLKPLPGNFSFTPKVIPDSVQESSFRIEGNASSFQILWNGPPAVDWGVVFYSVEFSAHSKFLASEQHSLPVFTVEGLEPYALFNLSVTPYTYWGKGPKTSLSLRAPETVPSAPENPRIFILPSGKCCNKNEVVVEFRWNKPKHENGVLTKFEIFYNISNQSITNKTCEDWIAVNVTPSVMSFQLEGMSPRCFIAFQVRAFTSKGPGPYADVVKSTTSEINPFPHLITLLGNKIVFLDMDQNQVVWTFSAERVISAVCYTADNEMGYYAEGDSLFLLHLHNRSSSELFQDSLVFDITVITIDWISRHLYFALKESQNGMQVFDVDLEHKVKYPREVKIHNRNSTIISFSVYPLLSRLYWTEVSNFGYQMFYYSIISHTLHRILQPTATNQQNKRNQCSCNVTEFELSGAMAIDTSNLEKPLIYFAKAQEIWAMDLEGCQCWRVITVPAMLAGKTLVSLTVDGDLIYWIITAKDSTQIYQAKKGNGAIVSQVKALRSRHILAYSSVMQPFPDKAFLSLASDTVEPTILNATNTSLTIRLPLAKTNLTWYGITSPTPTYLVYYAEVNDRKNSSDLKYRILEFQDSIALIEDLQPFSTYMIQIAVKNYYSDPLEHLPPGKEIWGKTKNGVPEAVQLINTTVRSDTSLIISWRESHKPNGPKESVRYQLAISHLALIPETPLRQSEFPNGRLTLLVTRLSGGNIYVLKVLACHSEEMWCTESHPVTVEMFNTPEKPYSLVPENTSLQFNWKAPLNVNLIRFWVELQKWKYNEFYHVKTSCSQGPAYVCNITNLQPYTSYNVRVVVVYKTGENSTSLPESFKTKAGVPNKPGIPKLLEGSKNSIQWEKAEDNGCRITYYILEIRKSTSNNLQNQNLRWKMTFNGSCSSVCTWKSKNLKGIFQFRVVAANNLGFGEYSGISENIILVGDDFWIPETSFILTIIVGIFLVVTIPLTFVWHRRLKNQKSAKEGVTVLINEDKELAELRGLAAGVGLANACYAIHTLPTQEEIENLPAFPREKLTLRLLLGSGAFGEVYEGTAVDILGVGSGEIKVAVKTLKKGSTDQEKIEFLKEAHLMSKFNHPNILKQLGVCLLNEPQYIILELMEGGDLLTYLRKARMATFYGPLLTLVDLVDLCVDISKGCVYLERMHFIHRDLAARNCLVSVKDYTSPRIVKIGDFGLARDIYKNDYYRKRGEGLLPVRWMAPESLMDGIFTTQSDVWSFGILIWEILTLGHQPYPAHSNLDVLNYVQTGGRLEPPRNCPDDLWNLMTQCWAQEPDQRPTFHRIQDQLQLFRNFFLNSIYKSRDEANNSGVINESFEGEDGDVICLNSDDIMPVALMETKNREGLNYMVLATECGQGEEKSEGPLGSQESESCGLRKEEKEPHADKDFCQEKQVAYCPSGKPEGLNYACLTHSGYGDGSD

CDK4 = CDK4 (Homo sapiens (Human), UniProt P11802); assay: Kinase panel inhibition rate at 10 μM; assay type: biochemical
Sequence of CDK4 (P11802 whole entry): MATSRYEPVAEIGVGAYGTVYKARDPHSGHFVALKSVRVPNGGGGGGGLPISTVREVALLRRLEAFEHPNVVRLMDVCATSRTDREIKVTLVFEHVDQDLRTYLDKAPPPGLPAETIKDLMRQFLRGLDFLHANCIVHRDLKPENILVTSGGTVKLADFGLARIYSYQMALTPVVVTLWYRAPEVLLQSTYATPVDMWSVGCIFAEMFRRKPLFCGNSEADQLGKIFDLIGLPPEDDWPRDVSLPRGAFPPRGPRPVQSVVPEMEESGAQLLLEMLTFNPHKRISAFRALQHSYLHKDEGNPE
Sequence of CDK4 (P30281 whole entry partner): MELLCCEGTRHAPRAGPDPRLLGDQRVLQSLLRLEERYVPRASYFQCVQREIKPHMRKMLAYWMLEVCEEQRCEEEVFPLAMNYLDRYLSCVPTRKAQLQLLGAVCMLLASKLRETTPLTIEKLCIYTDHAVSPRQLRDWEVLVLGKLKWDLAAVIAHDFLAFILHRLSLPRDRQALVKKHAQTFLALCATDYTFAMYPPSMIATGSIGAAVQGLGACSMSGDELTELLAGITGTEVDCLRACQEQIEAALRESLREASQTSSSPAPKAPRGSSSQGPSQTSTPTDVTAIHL

CDK7 = CDK7 (Homo sapiens (Human), UniProt P50613); assay: Kinase panel inhibition rate at 10 μM; assay type: biochemical
Sequence of CDK7 (P50613 whole entry): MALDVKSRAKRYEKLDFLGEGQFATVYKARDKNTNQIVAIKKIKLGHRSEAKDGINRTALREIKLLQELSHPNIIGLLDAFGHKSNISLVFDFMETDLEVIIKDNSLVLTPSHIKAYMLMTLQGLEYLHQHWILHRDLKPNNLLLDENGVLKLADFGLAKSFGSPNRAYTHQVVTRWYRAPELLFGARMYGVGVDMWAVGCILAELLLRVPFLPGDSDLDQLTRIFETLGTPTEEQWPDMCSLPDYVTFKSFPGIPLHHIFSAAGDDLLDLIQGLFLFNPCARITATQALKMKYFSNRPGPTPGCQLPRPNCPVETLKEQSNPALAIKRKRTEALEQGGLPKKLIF
Sequence of CDK7 (P51946 whole entry partner): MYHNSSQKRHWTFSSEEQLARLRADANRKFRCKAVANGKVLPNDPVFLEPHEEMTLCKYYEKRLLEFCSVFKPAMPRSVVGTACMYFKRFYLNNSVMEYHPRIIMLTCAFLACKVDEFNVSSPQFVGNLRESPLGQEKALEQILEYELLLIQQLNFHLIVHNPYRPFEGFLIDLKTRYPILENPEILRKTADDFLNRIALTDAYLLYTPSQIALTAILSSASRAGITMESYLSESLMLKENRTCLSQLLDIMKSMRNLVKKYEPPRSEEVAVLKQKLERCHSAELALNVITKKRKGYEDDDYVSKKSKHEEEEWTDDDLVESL
Sequence of CDK7 (P51948 whole entry partner): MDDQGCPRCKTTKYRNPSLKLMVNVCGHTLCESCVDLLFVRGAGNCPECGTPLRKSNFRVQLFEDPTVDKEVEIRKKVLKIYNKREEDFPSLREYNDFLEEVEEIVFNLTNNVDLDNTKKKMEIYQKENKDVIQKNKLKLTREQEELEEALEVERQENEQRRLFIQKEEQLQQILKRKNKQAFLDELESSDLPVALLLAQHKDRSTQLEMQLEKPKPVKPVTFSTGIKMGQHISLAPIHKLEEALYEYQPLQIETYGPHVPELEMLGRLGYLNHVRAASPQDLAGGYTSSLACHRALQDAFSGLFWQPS

CDK12 = CDK12 (Homo sapiens (Human), UniProt Q9NYV4); assay: Kinase panel inhibition rate at 10 μM; assay type: biochemical
p38-alpha = p38-alpha (Homo sapiens (Human), UniProt Q16539); assay: Kinase panel inhibition rate at 10 μM; assay type: biochemical
IKK-beta = IKK-beta (Homo sapiens (Human), UniProt O14920); assay: Kinase panel inhibition rate at 10 μM; assay type: biochemical
CK1gamma1 = CK1gamma1 (Homo sapiens (Human), UniProt Q9HCP0); assay: Kinase panel inhibition rate at 10 μM; assay type: biochemical
[1] = Determination of pharmacokinetic parameters in SD rats; assay type: in vivo; conditions: rat, plasma, oral; male SD rats; intravenously 2 mg/kg, gavage 10 mg/kg; read-out: Absolute oral bioavailability %
Procedure: The compounds to be tested were administered intravenously (2 mg/kg) and by gavage ([…]) to three male SD rats, respectively, and the blood concentration of the compounds to be tested in plasma was quantified by liquid chromatography tandem mass spectrometry ([…]), and the pharmacokinetic parameters were calculated to investigate the pharmacokinetic profiles of the compounds to be tested in the SD male rats. For the compounds to be tested, blood was taken at the time points of 0.25 h, 0.5 h, 1 h, 2 h, 4 h, 6 h, 8 h and 24 h after oral administration, and blood was taken at the time points of 0.083 h, 0.25 h, 0.5 h, 1 h, 2 h, 4 h, 6 h, 8 h and 24 h after intravenous administration. Subsequently, 50 μL of plasma sample was transferred to a 96-well plate and 250 μLACN (internal standard containing 260 ng/ml toluenesulfonylbutyramide) to precipitate proteins, and centrifuged at 4° C. and 4000 rpm for 20 min, 150 μL of the supernatant was transferred to a new 96-well plate and mixed with 150 μL of 0.1% FA/water, and then 5 μL of the resulting solution was loaded on LC-MS/MS for analysis.

[2] = Acute toxicity assay of DD02001A_trans in mice by gavage; assay type: in vivo; conditions: single dose, observed 14 days
Procedure: Mice were given DD02001A_trans (2000, 1500, 1000, and 500 mg/kg) by gavage in a single dose, respectively, and the responses of the mice after administration and their deaths within two weeks were recorded. • 2.2.5.1 Animals: Kunming breed mice (purchased from Guangdong Provincial Laboratory Animal Centre, License No.: SCXK(GD) 2018-0002), 10 mice, half male and half female, weighing 18-22 g. The mice were kept for three days to adapt to the environment. […] Necropsy was carried out on the dead animals in time to record the lesions. If obvious changes are visible to naked eyes, pathological section should be made.

Cn1cccc1-c1cc2cc(NC(=O)[C@@H]3C[C@H]3F)ncc2c(N)c1F [DD02001A trans, (1S,2R)—N-(8-amino-7-fluoro-6-(1-methyl-1H-pyrrole-2-yl)isoquinolin-3-yl)-2-fluorocyclopropane-1-carboxamide]
IC50 (HPK1): < 10 nM
IC50 (GCK): > 10 nM
IC50 (TNIK): > 10 nM
IC50 (PDK1): > 10000 nM
inhibition at 10 µM (JAK1): 97.3%
inhibition at 10 µM (CSF1R): 102%
inhibition at 10 µM (SYK): 85.1%
inhibition at 10 µM (LCK): 87.6%
inhibition at 10 µM (LYNB): 82.9%
inhibition at 10 µM (PI3Kα): 79.1%
inhibition at 10 µM (AKT1): < 40%
inhibition at 10 µM (HER2): < 40%
inhibition at 10 µM (EGFR): < 40%
inhibition rate ERK1.2 (ERK1.2): < 40%
inhibition at 10 µM (ZAP70): < 40%
inhibition at 10 µM (IGFIR): < 40%
inhibition at 10 µM (ATR): < 40%
inhibition rate MNK1/2 (MNK1/2): < 40%
inhibition at 10 µM (ROS1): < 40%
inhibition at 10 µM (CDK4): < 40%
inhibition at 10 µM (CDK7): < 40%
inhibition at 10 µM (CDK12): < 40%
inhibition at 10 µM (p38-alpha): < 40%
inhibition at 10 µM (IKK-beta): < 40%
inhibition at 10 µM (CK1gamma1): < 40%
bioavailability [1]: 61.3%
maximum tolerated dosage by gavage [2]: 1000 to 1500 mg/kg
